From patent US20060211760A1, “Indolamide derivatives which possess glycogen phosphorylase inhibitory activity” (AstraZeneca AB, priority 2003, published 2006)

How the values were obtained:
[1] = system: conscious dogs; conditions: following a glucagon challenge; cited from earlier work
[2] = biological target: T1, Human recombinant liver glycogen phosphorylase a (hrl GPa) (Homo sapiens, UniProt P06737); test: glycogen phosphorylase inhibition, multienzyme coupled assay of glucose-1-phosphate production from glycogen; format: biochemical; conditions: hrl GPa 20 nM, 6 hours at 30° C., 1% DMSO
T1 sequence (P06737 1-847): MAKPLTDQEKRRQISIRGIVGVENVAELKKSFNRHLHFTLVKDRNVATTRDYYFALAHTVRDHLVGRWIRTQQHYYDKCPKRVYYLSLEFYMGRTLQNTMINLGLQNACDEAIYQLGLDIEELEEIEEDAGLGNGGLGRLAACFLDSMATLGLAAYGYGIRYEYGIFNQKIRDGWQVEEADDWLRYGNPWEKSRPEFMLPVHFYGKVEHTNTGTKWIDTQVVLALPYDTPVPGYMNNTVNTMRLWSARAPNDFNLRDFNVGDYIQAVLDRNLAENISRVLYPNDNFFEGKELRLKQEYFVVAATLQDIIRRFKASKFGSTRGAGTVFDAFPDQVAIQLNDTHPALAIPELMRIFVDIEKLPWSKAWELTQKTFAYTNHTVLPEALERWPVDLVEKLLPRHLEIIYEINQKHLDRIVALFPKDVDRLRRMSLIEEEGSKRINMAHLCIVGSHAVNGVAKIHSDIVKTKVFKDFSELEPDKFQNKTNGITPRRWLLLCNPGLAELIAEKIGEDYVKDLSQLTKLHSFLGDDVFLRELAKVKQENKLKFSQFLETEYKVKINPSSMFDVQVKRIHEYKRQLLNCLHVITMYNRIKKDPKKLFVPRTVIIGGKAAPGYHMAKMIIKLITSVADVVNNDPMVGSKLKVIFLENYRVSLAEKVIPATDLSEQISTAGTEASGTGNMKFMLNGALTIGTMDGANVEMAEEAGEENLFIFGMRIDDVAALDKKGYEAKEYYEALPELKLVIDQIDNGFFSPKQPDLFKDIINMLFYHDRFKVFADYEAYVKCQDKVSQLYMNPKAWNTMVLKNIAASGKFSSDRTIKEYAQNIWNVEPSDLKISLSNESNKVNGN
Protocol: The activity of the compounds is determined by measuring the inhibitory effect of the compounds on glycogen degradation, the production of glucose-1-phosphate from glycogen is monitored by the multienzyme coupled assay, as described in EP 0 846 464 A2, general method of Pesce et al (Pesce, M A, Bodourian, S H, Harris, R C, and Nicholson, J F (1977) Clinical Chemistry 23, […]). The reactions were in 384well microplate format in a volume of 50 μl. The change in fluorescence due to the conversion of the co-factor NAD to NADH is measured at 340 nm excitation, 465nm emission in a Tecan Ultra Multifunctional Microplate Reader. The reaction is in 50 mM HEPES, 3.5 mM KH2PO4, 2.5 mM MgCl2, 2.5 mM ethylene glycol-bis(b-aminoethyl ether) N,N,N′,N′-tetraacetic acid, 100 mM KCl, 8 mM D-(+)-glucose pH7.2, containing 0.5 mM dithiothreitol, the assay buffer solution. Human recombinant liver glycogen phosphorylase a (hrl GPa) 20 nM is pre-incubated in assay buffer solution with 6.25 mM NAD, 1.25 mg type m glycogen at 1.25 mg ml^−1 the reagent buffer, for 30 minutes. […] The non-inhibited activity of GPa is measured in the presence of 10 μl 5% DMSO in assay buffer solution and maximum inhibition measured in the presence of 5 mgs ml^−1 N-ethylmaleimide. […] Relative Fluoresence Units (RFUs) are measured at 340 nm excitation, 465 nm emission. […]

[3] = system: hepatocytes; conditions: cited from earlier work
[4] = system: db/db and ob/ob mice; conditions: db/db and ob/ob mice following treatment; cited from earlier work

Q: With `CCN1C(C)=C(C(=O)OC(C)C)C(c2ccccc2Cl)C2=C1COC2=O` (stereo not drawn) [Bay R 3401] as the compound, how does the arterial plasma glucose [1] read?
A: reduced significantly

Q: And the hepatic glucose output [1]?
A: reduced significantly

Q: For `O=C(N[C@@H]1Cc2ccccc2[C@H]1CO)c1cc2cc(Cl)ccc2[nH]1` [Example 2, 5-Chloro-N-[(1R,2R)-1-(hydroxymethyl)-2,3-dihydro-1H-inden-2-yl]-indole-2-carboxamide], which IC50 [2] is on record?
A: 0.868 µM

Q: For `CN(C)C(=O)[C@H](O)[C@H](Cc1ccccc1)NC(=O)c1cc2cc(Cl)ccc2[nH]1` [CP91149], which glucagon stimulated glycogenolysis [3] is on record?
A: reduce

Q: And the glucose output [3]?
A: reduce

Q: What about the plasma glucose concentration [4] of the same compound?
A: reduced, in a dose related manner

Q: Which glucagon stimulated glycogenolysis [3] does the source give for `O=C(N[C@@H](Cc1ccc(F)cc1)C(=O)N1CCC(O)CC1)c1cc2cc(Cl)ccc2[nH]1` [CP320626] here?
A: reduce

Q: What about the glucose output [3] of the same compound?
A: reduce

Q: And the plasma glucose concentration [4]?
A: reduced, in a dose related manner
